Results as given in patent US8017612B2, “Piperazine compound and use thereof as a HCV polymerase inhibitor” (priority 2006, dated 2011).

Tests used:
[1] = target: T1, HCV polymerase (NS5B) type 1a (Hepatitis C virus genotype 1a, UniProt P26664); experiment: Assay of enzyme (HCV polymerase) inhibitory activity, type 1a enzyme; type: biochemical, HCV type 1a (cloned from the blood of patients); conditions: HCV polymerase inhibitory activity IC50, 1a, type 1a enzyme
T1 construct: made in house; host or cells: Escherichia coli (by the 'similar method' of the 1b enzyme)
In short: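 Reactions ran 60 min at 25° C in 20 mM Tris-HCl pH 7.5, 5 mM MgCl2, 50 mM NaCl, holding genotype 1a NS5B (1.5 μg/ml, Δ47 C-terminus, 6His), substrate RNA 5 μg/ml, UTP 2 μM with tritiated UTP and other NTPs 50 μM. IC50 derived from incorporated radiolabel in filter-trapped RNA relative to uninhibited reaction.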

[2] = target: T2, HCV polymerase (NS5B) type 1b (Hepatitis C virus genotype 1b, UniProt P26663); experiment: Assay of enzyme (HCV polymerase) inhibitory activity, type 1b enzyme; type: biochemical, HCV BK strain (type 1b); conditions: HCV polymerase inhibitory activity IC50, 1b, type 1b enzyme
T2 construct: a region encoding NS5B (J Virol 1991 March, 65(3), 1105-13, 544 amino acids after deletion of 47 amino acids on the C-terminal); 6xHis (C); made in house; host or cells: Escherichia coli
In short: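 IC50 derived from [3H]UTP incorporation into TCA-insoluble RNA, compared with and without test compound. Reaction (25 °C, 60 min, Tris pH 7.5, 5 mM MgCl2): E. coli-expressed 1b NS5B Δ47 with His tag at 0.5 μg/ml, 5 μg/ml run-off substrate RNA, ATP/GTP/CTP 50 μM, UTP 2 μM.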

Compound | IC50 [1] | IC50 [2]
O=C(NCc1ccc(OC(F)F)cc1)[C@H]1CN(c2nn3c(C(F)(F)F)cc(=O)nc3s2)CCN1S(=O)(=O)c1ccc(OC(F)(F)F)cc1 [Example 1066, (R)-4-(7-oxo-5-trifluoromethyl-7H-[1,3,4]thiadiazolo[3,2-a]pyrimidin-2-yl)-1-(4-trifluoromethoxy-benzenesulfonyl)-piperazine-2-carboxylic acid 4-difluoromethoxy-benzylamide] | < 100 nM | < 100 nM
O=C(NCc1ccc(OC(F)(F)F)cc1)[C@H]1CN(c2nn3c(C(F)(F)F)cc(=O)nc3s2)CCN1S(=O)(=O)c1ccc(C(F)(F)F)cc1 [Example 1067, (R)-4-(7-oxo-5-trifluoromethyl-7H-[1,3,4]thiadiazolo[3,2-a]pyrimidin-2-yl)-1-(4-trifluoromethyl-benzenesulfonyl)-piperazine-2-carboxylic acid 4-trifluoromethoxy-benzylamide] | < 100 nM | < 100 nM
O=C(NCc1ccc(OC(F)F)cc1)[C@H]1CN(c2nn3c(C(F)(F)F)cc(=O)nc3s2)CCN1S(=O)(=O)c1ccc(C(F)(F)F)cc1 [Example 1068, (R)-4-(7-oxo-5-trifluoromethyl-7H-[1,3,4]thiadiazolo[3,2-a]pyrimidin-2-yl)-1-(4-trifluoromethyl-benzenesulfonyl)-piperazine-2-carboxylic acid 4-difluoromethoxy-benzylamide] | < 100 nM | < 100 nM
O=C(NCc1ccc(OC(F)(F)F)cc1)[C@H]1CN(c2nc3nc(C4CCC4)ncc3s2)CCN1S(=O)(=O)c1ccc(OC(F)(F)F)cc1 [Example 1069, (R)-4-(5-cyclobutyl-thiazolo[4,5-d]pyrimidin-2-yl)-1-(4-trifluoromethoxy-benzenesulfonyl)-piperazine-2-carboxylic acid 4-trifluoromethoxy-benzylamide] | < 100 nM | < 100 nM
COCCc1ncc2sc(N3CCN(S(=O)(=O)c4ccc(OC(F)(F)F)cc4)[C@@H](C(=O)NCc4ccc(OC(F)(F)F)cc4)C3)nc2n1 [Example 1070, (R)-4-[5-(2-methoxy-ethyl)-thiazolo[4,5-d]pyrimidin-2-yl]-1-(4-trifluoromethoxy-benzenesulfonyl)-piperazine-2-carboxylic acid 4-trifluoromethoxy-benzylamide] | < 100 nM | < 100 nM
COCCn1ncc2sc(N3CCN(S(=O)(=O)c4ccc(OC(F)(F)F)cc4)[C@@H](C(=O)NCc4ccc(OC(F)(F)F)cc4)C3)nc2c1=O [Example 1071, (R)-4-[5-(2-methoxy-ethyl)-4-oxo-4,5-dihydro-thiazolo[4,5-d]pyridazin-2-yl]-1-(4-trifluoromethoxy-benzenesulfonyl)-piperazine-2-carboxylic acid 4-trifluoromethoxy-benzylamide] | < 100 nM | < 100 nM
O=C(NCc1ccc(OC(F)(F)F)cc1)[C@H]1CN(c2nc3nc(C4CCC4)ncc3s2)CCN1S(=O)(=O)c1ccc(C(F)(F)F)cc1 [Example 1072, (R)-4-(5-cyclobutyl-thiazolo[4,5-d]pyrimidin-2-yl)-1-(4-trifluoromethyl-benzenesulfonyl)-piperazine-2-carboxylic acid 4-trifluoromethoxy-benzylamide] | < 100 nM | < 100 nM
O=C(NCc1ccc(OC(F)F)c(F)c1)[C@H]1CN(c2nc3nc(C4CC4)ncc3s2)CCN1S(=O)(=O)c1ccc(OC(F)(F)F)cc1 [Example 1073, (R)-4-(5-cyclopropyl-thiazolo[4,5-d]pyrimidin-2-yl)-1-(4-trifluoromethoxy-benzenesulfonyl)-piperazine-2-carboxylic acid 4-difluoromethoxy-3-fluoro-benzylamide] | < 100 nM | < 100 nM
O=C(NCc1ccc(OC(F)F)c(F)c1)[C@H]1CN(c2nc3nc(C4CC4)ncc3s2)CCN1S(=O)(=O)c1ccc(C(F)(F)F)cc1 [Example 1074, (R)-4-(5-cyclopropyl-thiazolo[4,5-d]pyrimidin-2-yl)-1-(4-trifluoromethyl-benzenesulfonyl)-piperazine-2-carboxylic acid 4-difluoromethoxy-3-fluoro-benzylamide] | < 100 nM | < 100 nM
CC(C)(O)c1ncc2sc(N3CCN(S(=O)(=O)c4ccc(C(F)(F)F)cc4)[C@@H](C(=O)NCc4ccc(OC(F)(F)F)cc4)C3)nc2n1 [Example 1075, (R)-4-[5-(1-hydroxy-1-methyl-ethyl)-thiazolo[4,5-d]pyrimidin-2-yl]-1-(4-trifluoromethyl-benzenesulfonyl)-piperazine-2-carboxylic acid 4-trifluoromethoxy-benzylamide] | < 100 nM | < 100 nM
COCC1(c2ncc3sc(N4CCN(S(=O)(=O)c5ccc(OC(F)(F)F)cc5)[C@@H](C(=O)NCc5ccc(OC(F)(F)F)cc5)C4)nc3n2)CC1 [Example 1076, (R)-4-[5-(1-methoxymethyl-cyclopropyl)-thiazolo[4,5-d]pyrimidin-2-yl]-1-(4-trifluoromethoxy-benzenesulfonyl)-piperazine-2-carboxylic acid 4-trifluoromethoxy-benzylamide] | < 100 nM | < 100 nM
O=C(NCc1ccc(OC(F)(F)F)cc1)[C@H]1CN(c2nc3nc(C4(CO)CC4)ncc3s2)CCN1S(=O)(=O)c1ccc(OC(F)(F)F)cc1 [Example 1077, (R)-4-[5-(1-hydroxymethyl-cyclopropyl)-thiazolo[4,5-d]pyrimidin-2-yl]-1-(4-trifluoromethoxy-benzenesulfonyl)-piperazine-2-carboxylic acid 4-trifluoromethoxy-benzylamide] | < 100 nM | < 100 nM
O=C(NCc1ccc(OC(F)(F)F)cc1)[C@H]1CN(c2nc3c(=O)n(CCO)ncc3s2)CCN1S(=O)(=O)c1ccc(OC(F)(F)F)cc1 [Example 1078, (R)-4-[5-(2-hydroxy-ethyl)-4-oxo-4,5-dihydro-thiazolo[4,5-d]pyridazin-2-yl]-1-(4-trifluoromethoxy-benzenesulfonyl)-piperazine-2-carboxylic acid 4-trifluoromethoxy-benzylamide] | < 100 nM | < 100 nM
COC1(c2ncc3sc(N4CCN(S(=O)(=O)c5ccc(OC(F)(F)F)cc5)[C@@H](C(=O)NCc5ccc(OC(F)(F)F)cc5)C4)nc3n2)CC1 [Example 1079, (R)-4-[5-(1-methoxy-cyclopropyl)-thiazolo[4,5-d]pyrimidin-2-yl]-1-(4-trifluoromethoxy-benzenesulfonyl)-piperazine-2-carboxylic acid 4-trifluoromethoxy-benzylamide] | < 100 nM | < 100 nM
O=C(NCc1ccc(OC(F)(F)F)cc1)[C@H]1CN(c2nc3nc(C4(O)CC4)ncc3s2)CCN1S(=O)(=O)c1ccc(OC(F)(F)F)cc1 [Example 1080, (R)-4-[5-(1-hydroxy-cyclopropyl)-thiazolo[4,5-d]pyrimidin-2-yl]-1-(4-trifluoromethoxy-benzenesulfonyl)-piperazine-2-carboxylic acid 4-trifluoromethoxy-benzylamide] | < 100 nM | < 100 nM
CCCc1ccc(CNC(=O)[C@H]2CN(c3nc4cc(C(=O)OC(C)(C)C)ncc4s3)CCN2S(=O)(=O)c2ccc(OC(F)(F)F)cc2)cc1 [Example 1081, 2-[(R)-3-(4-propyl-benzylcarbamoyl)-4-(4-trifluoromethoxy-benzenesulfonyl)-piperazin-1-yl]-thiazolo[5,4-c]pyridine-6-carboxylic acid tert-butyl ester] | < 100 nM | < 100 nM
CCCc1ccc(CNC(=O)[C@H]2CN(c3nc4cc(C(=O)O)ncc4s3)CCN2S(=O)(=O)c2ccc(OC(F)(F)F)cc2)cc1 [Example 1082, 2-[(R)-3-(4-propyl-benzylcarbamoyl)-4-(4-trifluoromethoxy-benzenesulfonyl)-piperazin-1-yl]-thiazolo[5,4-c]pyridine-6-carboxylic acid] | < 100 nM | < 100 nM
CCCc1ccc(CNC(=O)[C@H]2CN(c3nc4c(C(=O)OCC)cncc4s3)CCN2S(=O)(=O)c2ccc(OC(F)(F)F)cc2)cc1 [Example 1083, 2-[(R)-3-(4-propyl-benzylcarbamoyl)-4-(4-trifluoromethoxy-benzenesulfonyl)-piperazin-1-yl]-thiazolo[5,4-c]pyridine-7-carboxylic acid ethyl ester] | < 100 nM | < 100 nM
CCCc1ccc(CNC(=O)[C@H]2CN(c3nc4c(C(=O)O)cncc4s3)CCN2S(=O)(=O)c2ccc(OC(F)(F)F)cc2)cc1 [Example 1084, 2-[(R)-3-(4-propyl-benzylcarbamoyl)-4-(4-trifluoromethoxy-benzenesulfonyl)-piperazin-1-yl]-thiazolo[5,4-c]pyridine-7-carboxylic acid] | < 100 nM | < 100 nM
O=C(NCc1ccc(OC(F)F)c(F)c1)[C@H]1CN(c2nc3nc(C(F)(F)F)ncc3s2)CCN1S(=O)(=O)c1ccc(C(F)(F)F)cc1 [Example 1085, (R)-1-(4-trifluoromethyl-benzenesulfonyl)-4-(5-trifluoromethyl-thiazolo[4,5-d]pyrimidin-2-yl)-piperazine-2-carboxylic acid 4-difluoromethoxy-3-fluoro-benzylamide] | < 100 nM | < 100 nM
